Reference: patent US20250195487A1, “FORMULATIONS OF A CSF-1R INHIBITOR” (Deciphera Pharmaceuticals, LLC, priority 2023, published 2025)
Structures can show the parent of a compound that is named as a salt.

What was measured:
[1] = Solubility determination in deionized water; type: physicochemical; conditions: ultrasonic treatment; for Solubility S: about 2 mg sample
[2] = Hygroscopic behavior test by dynamic vapor sorption (DVS); type: physicochemical; conditions: for hygroscopic property, in words: dependence on relative humidity; for hygroscopic weight gain: 25° C., DVS
Excerpt: The experimental method for characterizing the acid salt of the crystalline compound of the formula (I) by using dynamic vapor sorption (DVS) comprises the steps of putting a small amount of powder of the acid salt of the crystalline compound of the formula (I) in a precision sample tray in coordination with the instrument, and then sending to the instrument for testing after loading the samples. The model of all the instruments used in the dynamic vapor sorption in the present invention is DVS Intrinsic, the experimental parameters are set to that nitrogen is used as the carrier gas, the constant temperature is set to 25° C., the mass percent change rate per unit time (dm/dt) is equal to 0.01%/min as the determination criteria to achieve balance, the program humidity change cycle is set to that the initial relative humidity is 0%, the relative humidity at the end point is 90%, cycle is set to twice, and every 10% R.H. changes a step.
The inventors of the present invention measured the hygroscopic weight gain results (hygroscopic weight gain/pre-hygroscopic weight*100%) of various crystalline forms at each relative humidity by using the dynamic vapor sorption method, the hygroscopicity of different crystalline compounds was evaluated, and the results obtained were as follows: […]

Row | Compound | Dissolution Phenomenon [1] | Solubility S [1] | hygroscopic property, in words [2] | hygroscopic weight gain ([2]; relative humidity 0.0 %) | hygroscopic weight gain ([2]; relative humidity 10.0 %) | hygroscopic weight gain ([2]; relative humidity 20.0 %) | hygroscopic weight gain ([2]; relative humidity 30.0 %) | hygroscopic weight gain ([2]; relative humidity 40.0 %) | hygroscopic weight gain ([2]; relative humidity 50.0 %) | hygroscopic weight gain ([2]; relative humidity 60.0 %) | hygroscopic weight gain ([2]; relative humidity 70.0 %) | hygroscopic weight gain ([2]; relative humidity 80.0 %) | hygroscopic weight gain ([2]; relative humidity 90.0 %) | hygroscopic weight gain of the crystal ([2]; relative humidity less than 80%)
1 | Cc1nc(NC(=O)N2CCC(C)(C)C2=O)ccc1Oc1ccnc(-c2cnn(C)c2)c1 [Tartrate crystalline form I] | Settled solution | S > 20 mg/mL | a good linear relationship is formed | 0.00% | 0.83% | 1.79% | 2.42% | 2.88% | 3.32% | 3.77% | 4.44% | 5.17% | 10.61% | 
2 | Cc1nc(NC(=O)N2CCC(C)(C)C2=O)ccc1Oc1ccnc(-c2cnn(C)c2)c1 [Mesylate crystalline form II] | Settled solution | S > 20 mg/mL | significantly increased when the relative humidity is increased to 70% | 0.00% | 0.11% | 0.18% | 0.20% | 0.24% | 0.31% | 0.88% | 8.93% | 12.44% | 23.15% | 
3 | Cc1nc(NC(=O)N2CCC(C)(C)C2=O)ccc1Oc1ccnc(-c2cnn(C)c2)c1 [Sulfate crystalline form I] | Settled solution | S > 20 mg/mL |  |  |  |  |  |  |  |  |  |  |  | 
4 | Cc1nc(NC(=O)N2CCC(C)(C)C2=O)ccc1Oc1ccnc(-c2cnn(C)c2)c1 [Phosphate crystalline form I] | Settled solution | S > 20 mg/mL | remains less hygroscopicity regardless of the ambient relative humidity | 0.02% | 1.19% | 1.86% | 2.32% | 2.78% | 3.37% | 3.97% | 4.66% | 5.46% | 6.383% | 
5 | Cc1nc(NC(=O)N2CCC(C)(C)C2=O)ccc1Oc1ccnc(-c2cnn(C)c2)c1 [Malate crystalline form I] | Settled solution | S > 20 mg/mL |  |  |  |  |  |  |  |  |  |  |  | 
6 | Cc1nc(NC(=O)N2CCC(C)(C)C2=O)ccc1Oc1ccnc(-c2cnn(C)c2)c1 [Hydrochloride crystalline form I] | Settled solution | S > 20 mg/mL | when the relative humidity was increased to 90%, the hygroscopicity of the crystal was increased significantly | 0.00% | 0.13% | 0.24% | 0.34% | 0.42% | 0.52% | 0.63% | 0.81% | 1.37% | 19.40% | less than 1%
7 | Cc1nc(NC(=O)N2CCC(C)(C)C2=O)ccc1Oc1ccnc(-c2cnn(C)c2)c1 [Free compound] | Non-settling | S < 1.5 mg/mL |  |  |  |  |  |  |  |  |  |  |  | 
8 | Cc1nc(NC(=O)N2CCC(C)(C)C2=O)ccc1Oc1ccnc(-c2cnn(C)c2)c1 [Citrate crystalline form I] | Settled solution | S > 20 mg/mL |  |  |  |  |  |  |  |  |  |  |  | 
9 | Cc1nc(NC(=O)N2CCC(C)(C)C2=O)ccc1Oc1ccnc(-c2cnn(C)c2)c1 [Fumarate crystalline form I] | Settled solution | S > 20 mg/mL |  |  |  |  |  |  |  |  |  |  |  | 
